From ChEMBL document CHEMBL4831493 (Eur J Med Chem, 2021)
The source made the active and inactive calls. No cut-off for these calls is given here.

Experiments:
[1] = AUC (0 to infinity) in Sprague-Dawley rat at 10 mg/kg, po measured up to 24 hrs by LC-MS/MS analysis; format: ADME, organism-based; set-up: route oral, dose 10 mg/kg, time <=24; details: in vivo
Acetylcholinesterase = Acetylcholinesterase (Electrophorus electricus, UniProt O42275); assay: Inhibition of electric eel recombinant AChE preincubated for 1 min in presence of DNTB followed by addition of acetylthiocholine iodide substrate and measured after 20 mins by Ellman's method
[2] = molecular target: Dual specificity tyrosine-phosphorylation-regulated kinase 1A (Homo sapiens) (UniProt Q13627); assay: Inhibition of dyrk1 alpha (unknown origin) at 0.3 uM
[3] = molecular target: Glycogen synthase kinase-3 beta (Mus musculus) (UniProt Q9WV60); assay: Inhibition of GSK3beta in mouse N2a cells overexpressing human tau assessed as decrease in tau phosphorylation at Ser 396 residue measured after 6 hrs by Western blot assay; format: cell-based
[4] = molecular target: T1, Acetylcholinesterase (Mus musculus) (UniProt P21836); details: ICR, dose 10.0 mg/kg, time 1.5 hrs
T1 sequence (whole entry): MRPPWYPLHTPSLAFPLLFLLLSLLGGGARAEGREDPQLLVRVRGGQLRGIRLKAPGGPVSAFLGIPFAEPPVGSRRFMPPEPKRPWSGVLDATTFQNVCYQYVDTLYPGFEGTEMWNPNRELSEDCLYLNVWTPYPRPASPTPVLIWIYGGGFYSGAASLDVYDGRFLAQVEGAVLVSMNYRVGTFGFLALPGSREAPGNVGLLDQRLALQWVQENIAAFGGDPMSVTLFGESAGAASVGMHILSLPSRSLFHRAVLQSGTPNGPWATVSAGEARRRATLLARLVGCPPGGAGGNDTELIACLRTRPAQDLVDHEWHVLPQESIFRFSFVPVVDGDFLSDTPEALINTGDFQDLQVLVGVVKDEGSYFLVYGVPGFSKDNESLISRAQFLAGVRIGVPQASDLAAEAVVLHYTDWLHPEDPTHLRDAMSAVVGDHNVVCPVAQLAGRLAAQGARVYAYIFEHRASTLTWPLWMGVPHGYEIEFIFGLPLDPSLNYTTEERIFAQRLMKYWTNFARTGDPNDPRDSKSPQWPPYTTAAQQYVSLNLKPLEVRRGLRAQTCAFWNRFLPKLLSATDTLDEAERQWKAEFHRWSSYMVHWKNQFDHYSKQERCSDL

[5] = Oral bioavailability in Sprague-Dawley rat at 10 mg/kg measured up to 24 hrs by LC-MS/MS analysis; format: ADME, organism-based; details: in vivo
[6] = Ratio of drug level in brain to plasma of ICR mouse at 10 mg/kg, po measured after 1 hr by LC/MS/MS analysis; format: ADME, organism-based; details: brain and plasma
[7] = molecular target: Mitogen-activated protein kinase 14 (Homo sapiens) (UniProt Q16539); assay: Inhibition of p38alpha (unknown origin) at 0.3 uM
[8] = Tmax in Sprague-Dawley rat at 10 mg/kg, po measured up to 24 hrs by LC-MS/MS analysis; format: ADME, organism-based; details: in vivo
[9] = molecular target: Mitogen-activated protein kinase 11 (Homo sapiens) (UniProt Q15759); assay: Inhibition of p38beta (unknown origin) at 0.3 uM
[10] = MRT (0 to infinity) in Sprague-Dawley rat at 10 mg/kg, po measured up to 24 hrs by LC-MS/MS analysis; format: ADME, organism-based; details: in vivo
[11] = molecular target: Mitogen-activated protein kinase 1 (Homo sapiens) (UniProt P28482); assay: Inhibition of ERK2 (unknown origin) at 0.3 uM
[12] = Ratio of drug level in brain to plasma of ICR mouse at 10 mg/kg, po measured after 1.5 hrs by LC/MS/MS analysis; format: ADME, organism-based; details: brain and plasma
Mus musculus = assay: Improvement in learning and spatial memory in amyloid beta (1 to 42)-induced mouse model of Alzheimer's disease at 10 mg/kg/day, po pretreated with amyloid beta42 for 3 days followed by treatment with compound and measured after 9 days measured by Y-maze test; format: functional, organism-based; details: time 9.0 day
[13] = molecular target: Mitogen-activated protein kinase 3 (Homo sapiens) (UniProt P27361); assay: Inhibition of ERK1 (unknown origin) at 0.3 uM
[14] = molecular target: Glycogen synthase kinase-3 beta (Mus musculus) (UniProt Q9WV60); assay: Inhibition of GSK3beta in glutamate-induced mouse HT-22 cells assessed as increase in synaptophysin level at 0.6 uM pretreated with glutamate for 24 hrs followed by compound treatment by immunocytochemistry assay; format: cell-based
[15] = molecular target: Mitogen-activated protein kinase 13 (Homo sapiens) (UniProt O15264); assay: Inhibition of p38delta (unknown origin) at 0.3 uM
[16] = AUC (0 to infinity) in Sprague-Dawley rat at 1 mg/kg, iv measured up to 24 hrs by LC-MS/MS analysis; format: ADME, organism-based; set-up: route intravenous, dose 1 mg/kg, time <=24; details: in vivo
[17] = Drug level in ICR mouse brain at 10 mg/kg, po measured after 1.5 hrs by LC/MS/MS analysis; format: ADME, organism-based; details: read-out: Ct
[18] = molecular target: Mitogen-activated protein kinase 9 (Homo sapiens) (UniProt P45984); assay: Inhibition of JNK2 (unknown origin) at 0.3 uM
[19] = Toxicity in amyloid beta (1 to 42)-induced mouse model of Alzheimer's disease assessed as changes in swimming speed at 10 mg/kg/day, po measured after 9 days; format: organism-based; details: in vivo, 216 h, time 9 day
[20] = molecular target: Cyclin-dependent kinase 9 (Homo sapiens) (UniProt P50750); assay: Inhibition of CDK9 (unknown origin) at 0.3 uM
[21] = Cmax in Sprague-Dawley rat at 10 mg/kg, po measured up to 24 hrs by LC-MS/MS analysis; format: ADME, organism-based; set-up: route oral, dose 10 mg/kg, time <=24; details: in vivo
[22] = Half life in Sprague-Dawley rat at 1 mg/kg, iv measured up to 24 hrs by LC-MS/MS analysis; format: ADME, organism-based; details: in vivo
[23] = molecular target: Cyclin-dependent kinase 1 (Homo sapiens) (UniProt P06493); assay: Inhibition of CDK1 (unknown origin) at 0.3 uM
[24] = Toxicity in amyloid beta (1 to 42)-induced mouse model of Alzheimer's disease assessed as morphological changes in liver tissue at 10 mg/kg/day, po measured after 9 days by HE staining method; format: organism-based; details: in vivo, 216 h, time 9 day
[25] = molecular target: Dual specificity tyrosine-phosphorylation-regulated kinase 1B (Homo sapiens) (UniProt Q9Y463); assay: Inhibition of dyrk1 beta (unknown origin) at 0.3 uM
[26] = molecular target: Glycogen synthase kinase-3 beta (Mus musculus) (UniProt Q9WV60); assay: Inhibition of GSK3beta in mouse N2a cells overexpressing human tau assessed as decrease in tau phosphorylation at Ser396 residue at 0.9 uM measured after 6 hrs by Western blot assay; format: cell-based
[27] = MRT (0 to infinity) in Sprague-Dawley rat at 1 mg/kg, iv measured up to 24 hrs by LC-MS/MS analysis; format: ADME, organism-based; details: in vivo
[28] = Drug level in ICR mouse plasma at 10 mg/kg, po measured after 1.5 hrs by LC/MS/MS analysis; format: ADME, organism-based
[29] = molecular target: Cholinesterases; ACHE & BCHE (Homo sapiens) (UniProt P06276+P22303); assay: Selectivity index, ratio of IC50 for BChE (unknown origin) to IC50 for human recombinant AChE; format: protein assay
[30] = molecular target: Cyclin-dependent kinase 4 (Homo sapiens) (UniProt P11802); assay: Inhibition of CDK4 (unknown origin) at 0.3 uM
Sequence of Cyclin-dependent kinase 4 (Homo sapiens) (P11802 whole entry): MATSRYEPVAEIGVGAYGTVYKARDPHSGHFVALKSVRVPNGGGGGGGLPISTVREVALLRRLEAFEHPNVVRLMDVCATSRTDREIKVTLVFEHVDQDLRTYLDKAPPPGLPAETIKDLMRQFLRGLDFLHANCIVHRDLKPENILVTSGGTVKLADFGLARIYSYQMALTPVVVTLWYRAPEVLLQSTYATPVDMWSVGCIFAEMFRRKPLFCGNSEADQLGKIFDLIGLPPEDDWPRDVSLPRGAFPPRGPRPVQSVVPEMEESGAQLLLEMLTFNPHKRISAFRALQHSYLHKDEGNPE

Sequence of Glycogen synthase kinase-3 beta (Mus musculus) (Q9WV60 whole entry, looked up): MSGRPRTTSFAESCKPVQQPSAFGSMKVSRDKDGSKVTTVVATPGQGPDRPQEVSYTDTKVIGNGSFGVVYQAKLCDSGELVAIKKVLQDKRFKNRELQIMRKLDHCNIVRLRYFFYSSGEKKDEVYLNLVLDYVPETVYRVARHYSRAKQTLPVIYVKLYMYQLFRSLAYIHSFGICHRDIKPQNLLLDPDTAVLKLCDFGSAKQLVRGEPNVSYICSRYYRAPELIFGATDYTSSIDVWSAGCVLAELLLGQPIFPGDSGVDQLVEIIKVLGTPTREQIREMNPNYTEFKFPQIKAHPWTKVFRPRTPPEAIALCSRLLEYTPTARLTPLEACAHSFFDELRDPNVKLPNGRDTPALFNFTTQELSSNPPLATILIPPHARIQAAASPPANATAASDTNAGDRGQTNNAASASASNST
Sequence of Acetylcholinesterase (O42275 whole entry): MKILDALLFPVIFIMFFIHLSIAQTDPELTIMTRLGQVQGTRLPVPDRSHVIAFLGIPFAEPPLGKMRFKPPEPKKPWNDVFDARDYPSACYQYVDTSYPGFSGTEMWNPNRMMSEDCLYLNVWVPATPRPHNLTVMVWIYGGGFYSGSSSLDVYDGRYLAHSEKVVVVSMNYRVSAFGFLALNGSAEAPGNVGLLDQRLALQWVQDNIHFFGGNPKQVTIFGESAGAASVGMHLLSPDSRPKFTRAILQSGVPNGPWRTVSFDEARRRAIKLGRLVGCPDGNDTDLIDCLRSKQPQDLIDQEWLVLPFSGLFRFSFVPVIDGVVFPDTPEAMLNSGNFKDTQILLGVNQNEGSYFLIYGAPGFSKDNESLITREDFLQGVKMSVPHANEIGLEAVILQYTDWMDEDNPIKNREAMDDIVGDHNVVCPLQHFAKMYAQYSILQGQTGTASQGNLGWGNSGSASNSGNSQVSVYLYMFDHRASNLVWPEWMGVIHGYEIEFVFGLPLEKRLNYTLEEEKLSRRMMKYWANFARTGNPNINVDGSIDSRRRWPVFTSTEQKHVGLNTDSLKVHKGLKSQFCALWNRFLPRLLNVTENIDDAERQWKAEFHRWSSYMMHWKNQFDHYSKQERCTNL
Sequence of Cholinesterases; ACHE & BCHE (Homo sapiens) (P06276 whole entry, looked up): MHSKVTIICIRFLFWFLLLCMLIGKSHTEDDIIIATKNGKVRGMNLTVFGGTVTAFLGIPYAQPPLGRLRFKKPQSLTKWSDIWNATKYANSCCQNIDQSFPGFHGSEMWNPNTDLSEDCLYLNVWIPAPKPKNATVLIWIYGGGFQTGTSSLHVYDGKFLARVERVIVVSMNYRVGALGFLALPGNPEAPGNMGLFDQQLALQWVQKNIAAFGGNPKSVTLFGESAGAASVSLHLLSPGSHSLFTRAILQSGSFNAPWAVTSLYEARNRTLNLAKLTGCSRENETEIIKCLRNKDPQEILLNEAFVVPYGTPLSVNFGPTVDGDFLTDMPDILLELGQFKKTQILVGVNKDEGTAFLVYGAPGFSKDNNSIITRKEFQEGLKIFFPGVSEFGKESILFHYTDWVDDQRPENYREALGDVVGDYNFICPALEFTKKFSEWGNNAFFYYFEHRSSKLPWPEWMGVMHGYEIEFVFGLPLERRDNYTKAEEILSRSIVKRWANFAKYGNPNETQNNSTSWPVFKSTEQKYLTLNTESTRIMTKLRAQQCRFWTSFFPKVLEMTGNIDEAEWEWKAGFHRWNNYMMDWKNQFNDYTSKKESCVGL
Sequence of Cholinesterases; ACHE & BCHE (Homo sapiens) (P22303 whole entry, looked up): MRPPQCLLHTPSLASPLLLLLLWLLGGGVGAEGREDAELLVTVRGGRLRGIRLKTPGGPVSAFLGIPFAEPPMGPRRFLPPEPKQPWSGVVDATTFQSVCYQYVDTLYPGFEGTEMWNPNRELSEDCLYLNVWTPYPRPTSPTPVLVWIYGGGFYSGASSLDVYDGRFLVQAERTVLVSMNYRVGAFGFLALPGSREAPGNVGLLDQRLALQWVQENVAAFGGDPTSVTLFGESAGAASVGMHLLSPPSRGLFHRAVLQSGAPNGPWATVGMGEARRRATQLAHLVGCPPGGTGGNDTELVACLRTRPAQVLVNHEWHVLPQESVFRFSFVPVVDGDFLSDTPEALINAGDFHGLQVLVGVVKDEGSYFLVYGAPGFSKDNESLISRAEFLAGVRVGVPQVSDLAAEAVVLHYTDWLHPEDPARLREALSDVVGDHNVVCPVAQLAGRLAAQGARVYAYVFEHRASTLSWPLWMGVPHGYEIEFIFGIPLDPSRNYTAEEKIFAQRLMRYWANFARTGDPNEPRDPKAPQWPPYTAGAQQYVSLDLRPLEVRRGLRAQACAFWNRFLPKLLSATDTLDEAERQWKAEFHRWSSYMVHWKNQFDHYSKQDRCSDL
Sequence of Mitogen-activated protein kinase 3 (Homo sapiens) (P27361 whole entry): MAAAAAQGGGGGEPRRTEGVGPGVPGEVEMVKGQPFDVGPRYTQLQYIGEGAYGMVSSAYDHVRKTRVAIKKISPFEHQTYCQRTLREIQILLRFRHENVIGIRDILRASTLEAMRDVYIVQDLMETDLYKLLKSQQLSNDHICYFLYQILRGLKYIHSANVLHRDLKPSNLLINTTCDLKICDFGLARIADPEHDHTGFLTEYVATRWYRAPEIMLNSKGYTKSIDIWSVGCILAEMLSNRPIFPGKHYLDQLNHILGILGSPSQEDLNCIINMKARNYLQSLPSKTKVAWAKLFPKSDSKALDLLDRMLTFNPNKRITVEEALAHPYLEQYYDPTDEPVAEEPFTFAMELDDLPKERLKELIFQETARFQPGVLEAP
Sequence of Mitogen-activated protein kinase 13 (Homo sapiens) (O15264 whole entry): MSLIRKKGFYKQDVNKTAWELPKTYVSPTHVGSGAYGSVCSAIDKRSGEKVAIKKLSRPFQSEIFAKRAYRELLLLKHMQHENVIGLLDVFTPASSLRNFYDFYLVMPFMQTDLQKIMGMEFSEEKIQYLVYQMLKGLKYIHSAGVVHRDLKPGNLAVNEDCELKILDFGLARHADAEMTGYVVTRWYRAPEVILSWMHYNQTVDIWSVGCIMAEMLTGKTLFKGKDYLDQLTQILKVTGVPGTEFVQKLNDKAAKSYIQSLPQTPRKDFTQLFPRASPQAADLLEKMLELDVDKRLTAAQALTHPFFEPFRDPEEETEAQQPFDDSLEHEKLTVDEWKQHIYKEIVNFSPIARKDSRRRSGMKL
Sequence of Cyclin-dependent kinase 1 (Homo sapiens) (P06493 whole entry, looked up): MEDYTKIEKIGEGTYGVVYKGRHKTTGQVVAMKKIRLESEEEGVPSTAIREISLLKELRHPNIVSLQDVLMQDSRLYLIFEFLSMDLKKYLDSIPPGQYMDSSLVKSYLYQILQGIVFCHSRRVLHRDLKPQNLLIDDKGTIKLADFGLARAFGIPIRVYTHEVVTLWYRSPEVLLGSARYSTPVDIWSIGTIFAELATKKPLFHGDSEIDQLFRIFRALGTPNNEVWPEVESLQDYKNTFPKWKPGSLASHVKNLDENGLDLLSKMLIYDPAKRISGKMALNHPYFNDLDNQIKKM
Sequence of Mitogen-activated protein kinase 14 (Homo sapiens) (Q16539 whole entry): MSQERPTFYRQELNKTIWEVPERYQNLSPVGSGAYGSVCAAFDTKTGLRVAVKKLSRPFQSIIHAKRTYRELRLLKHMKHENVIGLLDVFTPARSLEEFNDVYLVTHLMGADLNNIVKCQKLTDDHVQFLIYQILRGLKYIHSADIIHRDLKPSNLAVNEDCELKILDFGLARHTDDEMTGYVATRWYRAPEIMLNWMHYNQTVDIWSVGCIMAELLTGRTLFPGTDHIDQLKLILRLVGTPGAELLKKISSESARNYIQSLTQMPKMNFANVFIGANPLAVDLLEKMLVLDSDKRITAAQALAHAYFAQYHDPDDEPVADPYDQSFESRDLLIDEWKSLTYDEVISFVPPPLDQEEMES
Sequence of Mitogen-activated protein kinase 9 (Homo sapiens) (P45984 whole entry, looked up): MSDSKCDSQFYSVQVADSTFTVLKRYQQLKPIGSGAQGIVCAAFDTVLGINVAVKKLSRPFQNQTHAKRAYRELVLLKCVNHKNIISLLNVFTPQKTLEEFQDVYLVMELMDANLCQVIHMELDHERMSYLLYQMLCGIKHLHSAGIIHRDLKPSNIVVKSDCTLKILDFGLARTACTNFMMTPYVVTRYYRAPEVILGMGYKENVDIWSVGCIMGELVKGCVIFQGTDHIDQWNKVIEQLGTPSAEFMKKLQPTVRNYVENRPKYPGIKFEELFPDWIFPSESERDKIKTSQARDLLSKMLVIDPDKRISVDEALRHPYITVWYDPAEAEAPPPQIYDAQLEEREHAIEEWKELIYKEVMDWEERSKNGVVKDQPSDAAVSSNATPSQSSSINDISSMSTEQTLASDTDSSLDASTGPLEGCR
Sequence of Cyclin-dependent kinase 9 (Homo sapiens) (P50750 whole entry): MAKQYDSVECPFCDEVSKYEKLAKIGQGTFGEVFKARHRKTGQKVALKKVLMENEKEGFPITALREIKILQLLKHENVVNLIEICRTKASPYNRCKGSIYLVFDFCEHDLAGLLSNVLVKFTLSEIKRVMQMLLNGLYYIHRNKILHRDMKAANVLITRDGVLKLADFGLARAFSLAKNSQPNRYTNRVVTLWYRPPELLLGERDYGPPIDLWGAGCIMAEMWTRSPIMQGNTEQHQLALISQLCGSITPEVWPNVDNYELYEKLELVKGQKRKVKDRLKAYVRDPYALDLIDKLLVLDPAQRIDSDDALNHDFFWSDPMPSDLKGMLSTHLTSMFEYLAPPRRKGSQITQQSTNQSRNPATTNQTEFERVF

With `O=C(Nc1cncc(OCC2CCN(Cc3ccc(F)cc3)CC2)c1)c1ccnc(NC(=O)C2CC2)c1` the AUC(0-inf) [1] was 1260 ng·h/mL, the IC50 (Acetylcholinesterase) was 11.8 nM and the inhibition [2] was “inactive”. For the same compound, the inhibition [3] was “Dose-Dependent Effect”, the inhibition [4] was 46.2% and the bioavailability [5] was 31%. The Kp at 1 h [6] was 0.153, the inhibition [7] was “inactive” and the Tmax [8] was 1.9 h. For the same compound, the inhibition [9] was “inactive”, the MRT inf [10] was 10.9 h and the inhibition [11] was “inactive”. For the same compound, the Kp at 1.5 h [12] was 0.33, the Activity (Mus musculus) was “Active” and the inhibition [13] was “inactive”. The inhibition [14] was “Active”, the inhibition [15] was “inactive” and the AUC(0-inf) [16] was 407 ng·h/mL. For the same compound, the concentration at 1.5 h [17] was 113 ng/g, the inhibition [18] was “inactive” and the Activity [19] was “Non-Toxic”. For the same compound, the inhibition [20] was “inactive”, the Cmax [21] was 159 ng/mL and the half-life [22] was 312 min. For the same compound, the inhibition [23] was “inactive”, the Activity [24] was “Non-Toxic” and the inhibition [25] was “inactive”. For the same compound, the inhibition [26] was “inactive”, the MRT inf [27] was 5.1 h and the concentration at 1.5 h [28] was 343 ng/g. The Selectivity Index [29] was 5300 and the inhibition [30] was “inactive”.
